The target of the first experiment is N-His-Tb-BIR3 (241-356, XIAP) (Homo sapiens (Human), UniProt P98170). Briefly: biochemical.
Details: not given
Type of experiment: binding.
As for `CN[C@@H](C)C(=O)N[C@H](C(=O)N1Cc2cc(NC(=O)c3ccc(C(=O)N[C@H]4C[C@@H](C(=O)N[C@@H]5CCCc6ccccc65)N(C(=O)[C@@H](NC(=O)[C@@H](NC)C(C)C)C(C)(C)C)C4)cc3)ccc2C[C@H]1C(=O)N[C@@H]1CCCc2ccccc21)C(C)(C)C` [Example 36, N^1-((S)-2-((S)-3,3-dimethyl-2-((S)-2-(methylamino)propanamido)butanoyl)-3-(((R)-1,2,3,4-tetrahydronaphthalen-1-yl)carbamoyl)-1,2,3,4-tetrahydroisoquinolin-7-yl)-N^4-((3S,5S)-1-((S)-3,3-dimethyl-2-((S)-3-methyl-2-(methylamino)butanamido)butanoyl)-5-(((R)-1,2,3,4-tetrahydronaphthalen-1-yl)carbamoyl)pyrrolidin-3-yl)terephthalamide], the midpoint of inhibition, the IC50, lay at 190 nM.

The same experiment, now with this note: fluoresceinated modified SMAC peptide, fluorescence polarization; read-out: XIAP BIR3 FPA IC50.
Take `CN[C@@H](C)C(=O)N[C@H](C(=O)N1Cc2cc(C(=O)Nc3ccc(C(=O)N[C@H]4C[C@@H](C(=O)N[C@@H]5CCCc6ccccc65)N(C(=O)[C@@H](NC(=O)[C@H](C)NC)C(C)(C)C)C4)cc3)ccc2C[C@H]1C(=O)N[C@@H]1CCCc2ccccc21)C(C)(C)C` [Example 27, (S)-2-((S)-3,3-Dimethyl-2-((S)-2-(methylamino)propanamido)butanoyl)-N^7-(4-(((3S,5S)-1-((S)-3,3-dimethyl-2-((S)-2-(methylamino)propanamido)butanoyl)-5-(((R)-1,2,3,4-tetrahydronaphthalen-1-yl)carbamoyl)pyrrolidin-3-yl)carbamoyl)phenyl)-N^3—((R)-1,2,3,4-tetrahydronaphthalen-1-yl)-1,2,3,4-tetrahydroisoquinoline-3,7-dicarboxamide]: the 50% inhibitory concentration (IC50) was found to be 73 nM.

Consider `CN[C@@H](C)C(=O)N[C@H](C(=O)N1Cc2cc(C(=O)NC3(C(=O)N[C@H]4C[C@@H](C(=O)N[C@@H]5CCCc6ccccc65)N(C(=O)[C@@H](NC(=O)[C@H](C)NC)C(C)(C)C)C4)CC3)ccc2C[C@H]1C(=O)N[C@@H]1CCCc2ccccc21)C(C)(C)C` [Example 28, (S)-2-((S)-3,3-Dimethyl-2-((S)-2-(methylamino)propanamido)butanoyl)-N7-(1-(((3S,5S)-1-((S)-3,3-dimethyl-2-((S)-2-(methylamino)propanamido)butanoyl)-5-(((R)-1,2,3,4-tetrahydronaphthalen-1-yl)carbamoyl)pyrrolidin-3-yl)carbamoyl)cyclopropyl)-N3((R)-1,2,3,4-tetrahydronaphthalen-1-yl)-1,2,3,4-tetrahydroisoquinoline-3,7-dicarboxamide], for which the half-maximal inhibitory concentration (IC50) was 98 nM. For `CN[C@@H](C)C(=O)N[C@H](C(=O)N1Cc2cc(C(=O)NC(C)(C)C(=O)N[C@H]3C[C@@H](C(=O)N[C@@H]4CCCc5ccccc54)N(C(=O)[C@@H](NC(=O)[C@H](C)NC)C(C)(C)C)C3)ccc2C[C@H]1C(=O)N[C@@H]1CCCc2ccccc21)C(C)(C)C` [Example 29, (S)-2-((S)-3,3-Dimethyl-2-((S)-2-(methylamino)propanamido)butanoyl)-N7-(1-(((3S,5S)-1-((S)-3,3-dimethyl-2-((S)-2-(methylamino)propanamido)butanoyl)-5-(((R)-1,2,3,4-tetrahydronaphthalen-1-yl)carbamoyl)pyrrolidin-3-yl)amino)-2-methyl-1-oxopropan-2-yl)-N3-((R)-1,2,3,4-tetrahydronaphthalen-1-yl)-1,2,3,4-tetrahydroisoquinoline-3,7-dicarboxamide], the half-maximal inhibitory concentration (IC50) amounted to 61 nM. Turning to `CN[C@@H](C)C(=O)N[C@H](C(=O)N1CC[C@@H](OCc2ccc(C(=O)N[C@H]3C[C@@H](C(=O)N[C@@H]4CCCc5ccccc54)N(C(=O)[C@@H](NC(=O)[C@H](C)NC)C(C)(C)C)C3)cc2)C[C@H]1C(=O)N[C@@H]1CCCc2ccccc21)C(C)(C)C` [Example 30, (2S,4R)-1-((S)-3,3-Dimethyl-2-((S)-2-(methylamino)propanamido)butanoyl)-4-((4-(((3S,5S)-1-((S)-3,3-dimethyl-2-((S)-2-(methylamino)propanamido)butanoyl)-5-(((R)-1,2,3,4-tetrahydronaphthalen-1-yl)carbamoyl)pyrrolidin-3-yl)carbamoyl)benzyl)oxy)-N—((R)-1,2,3,4-tetrahydronaphthalen-1-yl)piperidine-2-carboxamide], the IC50 amounted to 38 nM. Regarding `CN[C@@H](C)C(=O)N[C@H](C(=O)N1Cc2cc(NCc3ccc(C(=O)N[C@H]4C[C@@H](C(=O)N[C@@H]5CCCc6ccccc65)N(C(=O)[C@@H](NC(=O)[C@H](C)NC)C(C)(C)C)C4)cc3)ccc2C[C@H]1C(=O)N[C@@H]1CCCc2ccccc21)C(C)(C)C` [Example 31, (S)-2-((S)-3,3-Dimethyl-2-((S)-2-(methylamino)propanamido)butanoyl)-7-((4-(((3S,5S)-1-((S)-3,3-dimethyl-2-((S)-2-(methylamino)propanamido)butanoyl)-5-(((R)-1,2,3,4-tetrahydronaphthalen-1-yl)carbamoyl)pyrrolidin-3-yl)carbamoyl)benzyl)amino)-N—((R)-1,2,3,4-tetrahydronaphthalen-1-yl)-1,2,3,4-tetrahydroisoquinoline-3-carboxamide], the IC50 was determined as 71 nM. Still for that read-out and setting: next, `CN[C@@H](C)C(=O)N[C@H](C(=O)N1Cc2cc(N(Cc3ccc(C(=O)N[C@H]4C[C@@H](C(=O)N[C@@H]5CCCc6ccccc65)N(C(=O)[C@@H](NC(=O)[C@H](C)NC)C(C)(C)C)C4)cc3)C(C)=O)ccc2C[C@H]1C(=O)N[C@@H]1CCCc2ccccc21)C(C)(C)C` [Example 32, (S)-2-((S)-3,3-Dimethyl-2-((S)-2-(methylamino)propanamido)butanoyl)-7-(N-(4-(((3S,5S)-1-((S)-3,3-dimethyl-2-((S)-2-(methylamino)propanamido)butanoyl)-5-(((R)-1,2,3,4-tetrahydronaphthalen-1-yl)carbamoyl)pyrrolidin-3-yl)carbamoyl)benzyl)acetamido)-N—((R)-1,2,3,4-tetrahydronaphthalen-1-yl)-1,2,3,4-tetrahydroisoquinoline-3-carboxamide]: 35 nM. As for `CN[C@@H](C)C(=O)N[C@H](C(=O)N1Cc2cc(NCc3ccc(C(=O)N[C@H]4C[C@@H](C(=O)N[C@@H]5CCCc6ccccc65)N(C(=O)[C@@H](NC(=O)[C@H](C)NC)C(C)(C)C)C4)cc3Cl)ccc2C[C@H]1C(=O)N[C@@H]1CCCc2ccccc21)C(C)(C)C` [Example 33, (S)-7-((2-Chloro-4-(((3S,5S)-1-((S)-3,3-dimethyl-2-((S)-2-(methylamino)propanamido)butanoyl)-5-(((R)-1,2,3,4-tetrahydronaphthalen-1-yl)carbamoyl)pyrrolidin-3-yl)carbamoyl)benzyl)amino)-2-((S)-3,3-dimethyl-2-((S)-2-(methylamino)propanamido)butanoyl)-N—((R)-1,2,3,4-tetrahydronaphthalen-1-yl)-1,2,3,4-tetrahydroisoquinoline-3-carboxamide], the IC50 turned out to be 66 nM. With `CCN[C@@H](C)C(=O)N[C@H](C(=O)N1Cc2cc(NC(=O)c3ccc(C(=O)N[C@H]4C[C@@H](C(=O)N[C@@H]5CCCc6ccccc65)N(C(=O)[C@@H](NC(=O)[C@H](C)NC)C(C)(C)C)C4)cc3)ccc2C[C@H]1C(=O)N[C@@H]1CCCc2ccccc21)C(C)(C)C` [Example 34, N^1-((3S,5S)-1-((S)-3,3-dimethyl-2-((S)-2-(methylamino)propanamido)butanoyl)-5-(((R)-1,2,3,4-tetrahydronaphthalen-1-yl)carbamoyl)pyrrolidin-3-yl)-N^4-((S)-2-((S)-2-((S)-2-(ethylamino)propanamido)-3,3-dimethylbutanoyl)-3-(((R)-1,2,3,4-tetrahydronaphthalen-1-yl)carbamoyl)-1,2,3,4-tetrahydroisoquinolin-7-yl)terephthalamide], the IC50 turned out to be 150 nM. Take `CN[C@@H](C)C(=O)N[C@H](C(=O)N1C[C@@H](NC(=O)c2ccc(C(=O)Nc3ccc4c(c3)CN(C(=O)[C@@H](NC(=O)[C@@H](NC)C(C)C)C(C)(C)C)[C@H](C(=O)N[C@@H]3CCCc5ccccc53)C4)cc2)C[C@H]1C(=O)N[C@@H]1CCCc2ccccc21)C(C)(C)C` [Example 35]: the IC50 came out at 200 nM. On to `CN[C@@H](C)C(=O)N[C@H](C(=O)[C@@H]1C[C@H](NC(=O)[C@@H](CCC(F)(F)F)[C@@H](CCC(F)(F)F)C(=O)Nc2ccc3c(c2)CN(C(=O)[C@@H](NC(=O)[C@H](C)NC)C(C)(C)C)[C@H](C(=O)N[C@@H]2CCCc4ccccc42)C3)CN1C(=O)N[C@@H]1CCCc2ccccc21)C(C)(C)C` [Example 37, (2S,3R)-N^1-((3S,5S)-5-((S)-3,3-dimethyl-2-((S)-2-(methylamino)propanamido)butanoyl)-1-(((R)-1,2,3,4-tetrahydronaphthalen-1-yl)carbamoyl)pyrrolidin-3-yl)-N^4-((S)-2-((S)-3,3-dimethyl-2-((S)-2-(methylamino)propanamido)butanoyl)-3-(((R)-1,2,3,4-tetrahydronaphthalen-1-yl)carbamoyl)-1,2,3,4-tetrahydroisoquinolin-7-yl)-2,3-bis(3,3,3-trifluoropropyl) succinamide], for which the concentration for half-maximal inhibition (IC50) stood at 110 nM.

The same experiment, now with this note: read-out: XIAP BIR3 FPA IC50.
In the case of `CN[C@@H](C)C(=O)N[C@H](C(=O)N1Cc2cc(NC(=O)C(F)(F)C(F)(F)C(=O)N[C@H]3C[C@@H](C(=O)N[C@@H]4CCCc5ccccc54)N(C(=O)[C@@H](NC(=O)[C@H](C)NC)C(C)(C)C)C3)ccc2C[C@H]1C(=O)N[C@@H]1CCCc2ccccc21)C(C)(C)C` [Example 17, N^1—((S)-2-((S)-3,3-Dimethyl-2-((S)-2-(methylamino)propanamido)butanoyl)-3-(((R)-1,2,3,4-tetrahydronaphthalen-1-yl)carbamoyl)-1,2,3,4-tetrahydroisoquinolin-7-yl)-N^4-((3S,5S)-1-((S)-3,3-dimethyl-2-((S)-2-(methylamino)propanamido)butanoyl)-5-(((R)-1,2,3,4-tetrahydronaphthalen-1-yl)carbamoyl)pyrrolidin-3-yl)-2,2,3,3-tetrafluorosuccinamide], the concentration for half-maximal inhibition (IC50) came out at 56 nM.

By IC50 is commonly meant the concentration at which inhibition is half-maximal.

The values are drawn from US9783573B2, “IAP antagonists” (BRISTOL-MYERS SQUIBB COMPANY, priority 2012, dated 2017).
